# Assay results from the supplement of paper PMC3974653.
# Structures can show the parent of a compound that is named as a salt.
# Tested on: MTT (mouse pheochromocytoma)
# Test: IC50 of cell viability (ATP content)
# Details: (24 or 48 h)
# In short: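 After overnight culture at 37°C, 5% CO2 in white 1536-well plates, MTT mouse pheochromocytoma cells were given 23 nl of library compound in DMSO by pintool across 8 concentrations, spanning final 0.5 nM to 46 µM. Following 24 or 48 hrs, CellTiter-Glo luminescence was read after 15 minutes and normalised against positive-control (100%) and DMSO (0%) wells. A four-parameter logistic model provided the IC50.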
row,SMILES,IC50 of cell viability
1,CCCCC/1=N/C2(CCCC2)C(=O)N1CC3=CC=C(C=C3)C4=CC=CC=C4C5=NN=N[NH]5 [IRBESARTAN],> 46 µM
2,Nc1nc(N)nc(-c2cc(Cl)ccc2Cl)n1 [IRSOGLADINE MALEATE],> 46 µM
3,CC(C)NCC(O)COc1ccccc1-n1cccc1 (configuration not stated) [ISAMOLTANE],> 46 µM
4,CC(C)Cn1cnc2c1c(=O)n(C)c(=O)n2C [ISBUFYLLINUM],> 46 µM
5,FC(F)OC(Cl)C(F)(F)F (configuration not stated) [ISOFLURANE],> 46 µM
6,CCC(C)[C@@H](N)C(=O)O (some centres not stated) [ISOLEUCINE],> 46 µM
7,CCC(C)C(N)C(=O)O (configuration not stated) [ISOLEUCINE],> 46 µM
8,CC[C@@H](C)C(N)C(=O)O (some centres not stated) [ISOLEUCINE],> 46 µM
9,O=C(NNC[S+](=O)([O-])O)c1ccncc1 [ISONIAZID SODIUM METHANESULFONATE],> 46 µM
10,Cc1c(C(C)C)c(=O)n(-c2ccccc2)n1C [ISOPROPYLANTIPYRINE],> 46 µM
11,CC(C)NCC(O)c1ccc(O)c(O)c1 (configuration not stated) [ISOPROTERENOL],> 46 µM
12,O=[N+]([O-])O[C@H]1CO[C@H]2[C@@H]1OC[C@H]2O [ISOSORBIDE MONONITRATE],> 46 µM
13,O[C@@H]1CO[C@H]2[C@@H]1OC[C@@H]2O [ISOSORBIDE],> 46 µM
14,C[C@H](CN1c2ccccc2Sc2cccnc21)N(C)C [ISOTHIPENDYL HYDROCHLORIDE],> 46 µM
15,CN1\C(=C(\O)C2=C(C=CC=C2)[S+]1([O-])=O)C(=O)NC3=NOC(=C3)C [ISOXICAM],> 46 µM
16,Cc1nnc2n1-c1sc(CCc3ccc(CC(C)C)cc3)cc1C(c1ccccc1Cl)=NC2C (configuration not stated) [ISRAPAFANT],> 46 µM
17,CN1C2CCC1CC(NC(=O)n1c(=O)[nH]c3ccccc31)C2 (configuration not stated) [ITASETRON HYDROCHLORIDE HYDRATE],> 46 µM
18,COc1ccc(C(=O)NCc2ccc(OCCN(C)C)cc2)cc1OC [ITOPRIDE HYDROCHLORIDE],> 46 µM
19,COc1cc2c(cc1OC)CC(=O)N(CCCN(C)C[C@H]1Cc3cc(OC)c(OC)cc31)CC2 [IVABRADINE HYDROCHLORIDE],> 46 µM

row,SMILES,IC50 of cell viability
1,CC[C@H](C)[C@H]1O[C@]2(CC[C@@H]1C)C[C@@H]1C[C@@H](C/C=C(\C)[C@H](O[C@@H]3C[C@H](OC)[C@H](O[C@@H]4C[C@H](OC)[C@@H](O)[C@H](C)O4)[C@H](C)O3)[C@@H](C)/C=C/C=C3\CO[C@@H]4[C@H](O)C(C)=C[C@@H](C(=O)O1)[C@]34O)O2 [IVERMECTIN],> 46 µM
2,CCC1CC2CC3c4[nH]c5ccc(OC)cc5c4CCN(C2)C13 (configuration not stated) [Ibogaine],> 46 µM
3,CC(C)C(=O)c1c(C(C)C)nn2ccccc12 [Ibudilast],> 46 µM
4,CC(C)Cc1ccc(CC(=O)O)cc1 [Ibufenac],> 46 µM
5,CC(C)Cc1ccc(C(C)C(=O)O)cc1 (configuration not stated) [Ibuprofen],> 46 µM
6,CCCCCCCN(CC)CCCC(O)c1ccc(N[S+](C)(=O)[O-])cc1 (configuration not stated) [Ibutilide],> 46 µM
7,COC1=C(OC)C(=O)C(CCCCCCCCCCO)=C(C)C1=O [Idebenone],> 46 µM
8,OC[C@@H]1O[C@H](C[C@@H]1O)N2\C=C(\I)C(=O)NC2=O [Idoxuridine],> 46 µM
9,O=C(/C=C/c1ccccc1)NCCO [Idrocilamida],> 46 µM
10,O=[P@@]1(NCCCl)OCCCN1CCCl [Ifosfamide],> 46 µM
11,CCCCCCCCCCCCCCCCSCC(COC)COP(=O)([O-])OCC[N+](C)(C)C (configuration not stated) [Ilmofosine],> 46 µM
12,COc1cc(C(C)=O)ccc1OCCCN1CCC(c2noc3cc(F)ccc23)CC1 [Iloperidone],> 46 µM
13,CC#CCC(C)[C@H](O)/C=C/C1[C@H](O)C[C@@H]2C/C(=C\CCCC(=O)O)C[C@H]12 (some centres not stated) [Iloprost],> 46 µM
14,C=CCOC(Cn1ccnc1)c1ccc(Cl)cc1Cl (configuration not stated) [Imazalil sulphate],> 46 µM
15,O=C1CC\C(=N/N1)C2=CC=C(C=C2)[N]3C=CN=C3 [Imazodan],> 46 µM
16,O=C(NCNC(=O)NC1C(=O)NC(=O)N1CO)NC1C(=O)NC(=O)N1CO (configuration not stated) [Imidazolidinyl urea],> 46 µM
17,CCC(=O)O.CCC(=O)O.O=C(Nc1cccc(C2=NCCN2)c1)Nc1cccc(C2=NCCN2)c1 [Imidocarbe],> 46 µM
18,C[C@H](O)[C@H]1[C@@H]2C\C(=C(/N2C1=O)C(O)=O)SCCNC=N [Imipenem],> 46 µM
